Experimental data: ChEMBL document CHEMBL3044631, “Synthesis of 2-[4,5-dimethyl-1-(phenylamino)-1H-imidazol-2-ylthio]-N-(thiazole-2-yl)acetamide derivatives and their anticancer activities” (2013)

Tests used:
Type in all cases: functional
[1] = system: U-251; test: Anticancer activity against Homo sapiens (human) U251 cells after 48 hr by SRB assay; settings: U-251, 48 h
[2] = system: DU-145; test: Anticancer activity against Homo sapiens (human) DU145 cells after 48 hr by SRB assay; settings: DU-145, 48 h
[3] = system: NCI-H23; test: Anticancer activity against Homo sapiens (human) NCI-H23 cells after 48 hr by SRB assay; settings: NCI-H23, 48 h; for CC50: read-out: LC50 (the source's name)
[4] = system: OVCAR-4; test: Anticancer activity against Homo sapiens (human) OVCAR4 cells after 48 hr by SRB assay; settings: OVCAR-4, 48 h
[5] = system: OVCAR-8; test: Anticancer activity against Homo sapiens (human) OVCAR8 cells after 48 hr by SRB assay; settings: OVCAR-8, 48 h; for CC50: read-out: LC50 (the source's name)
[6] = system: SF-268; test: Anticancer activity against Homo sapiens (human) SF268 cells after 48 hr by SRB assay; settings: SF-268, 48 h
[7] = system: SN12C; test: Anticancer activity against Homo sapiens (human) SN12C cells after 48 hr by SRB assay
[8] = system: UACC-257; test: Anticancer activity against Homo sapiens (human) UACC257 cells after 48 hr by SRB assay; settings: UACC-257, 48 h
[9] = system: A498; test: Anticancer activity against Homo sapiens (human) A498 cells after 48 hr by SRB assay; settings: A498, 48 h
[10] = system: SK-MEL-5; test: Anticancer activity against Homo sapiens (human) SK-MEL-5 cells after 48 hr by SRB assay; settings: SK-MEL-5, 48 h
[11] = system: CAKI-1; test: Anticancer activity against Homo sapiens (human) CAKI-1 cells after 48 hr by SRB assay; settings: CAKI-1, 48 h
[12] = system: SK-OV-3; test: Anticancer activity against Homo sapiens (human) SKOV3 cells after 48 hr by SRB assay; settings: SK-OV-3, 48 h
[13] = system: SF-539; test: Anticancer activity against Homo sapiens (human) SF539 cells after 48 hr by SRB assay; settings: SF-539, 48 h
[14] = system: IGROV-1; test: Anticancer activity against Homo sapiens (human) IGROV1 cells after 48 hr by SRB assay; settings: IGROV-1, 48 h
[15] = system: EKVX; test: Anticancer activity against Homo sapiens (human) EKVX cells after 48 hr by SRB assay; settings: for CC50: read-out: LC50 (the source's name)
[16] = system: 786-0; test: Anticancer activity against Homo sapiens (human) 786-0 cells after 48 hr by SRB assay; settings: 786-0, 48 h
[17] = system: Malme-3M; test: Anticancer activity against Homo sapiens (human) MALME-3M cells after 48 hr by SRB assay; settings: for CC50: read-out: LC50 (the source's name)
[18] = system: BT-549; test: Anticancer activity against Homo sapiens (human) BT549 cells after 48 hr by SRB assay; settings: BT-549, 48 h
[19] = system: OVCAR-3; test: Anticancer activity against Homo sapiens (human) OVCAR3 cells after 48 hr by SRB assay; settings: OVCAR-3, 48 h
[20] = system: SW-620; test: Anticancer activity against Homo sapiens (human) SW620 cells after 48 hr by SRB assay; settings: SW-620, 48 h
[21] = system: KM12; test: Anticancer activity against Homo sapiens (human) KM12 cells after 48 hr by SRB assay; settings: KM12, 48 h
[22] = system: K562; test: Anticancer activity against Homo sapiens (human) K562 cells after 48 hr by SRB assay; settings: K562, 48 h; for CC50: read-out: LC50 (the source's name)
[23] = system: SF-295; test: Anticancer activity against Homo sapiens (human) SF295 cells after 48 hr by SRB assay; settings: SF-295, 48 h
[24] = system: NCI-H322M; test: Anticancer activity against Homo sapiens (human) NCI-H322M cells after 48 hr by SRB assay; settings: for CC50: read-out: LC50 (the source's name)
[25] = system: HT-29; test: Anticancer activity against Homo sapiens (human) HT-29 cells after 48 hr by SRB assay; settings: HT-29, 48 h
[26] = system: NCI/ADR-RES; test: Anticancer activity against Homo sapiens (human) NCI/ADR-RES cells after 48 hr by SRB assay
[27] = system: TK-10; test: Anticancer activity against Homo sapiens (human) TK10 cells after 48 hr by SRB assay; settings: TK-10, 48 h
[28] = system: SK-MEL-2; test: Anticancer activity against Homo sapiens (human) SK-MEL-2 cells after 48 hr by SRB assay; settings: SK-MEL-2, 48 h
[29] = system: UO-31; test: Anticancer activity against Homo sapiens (human) UO31 cells after 48 hr by SRB assay; settings: UO-31, 48 h; for CC50: read-out: LC50 (the source's name)
[30] = system: SNB-19; test: Anticancer activity against Homo sapiens (human) SNB19 cells after 48 hr by SRB assay; settings: SNB-19, 48 h
[31] = system: MDA-MB-231; test: Anticancer activity against Homo sapiens (human) MDA-MB-231/ATCC cells after 48 hr by SRB assay; settings: MDA-MB-231, 48 h; for CC50: read-out: LC50 (the source's name)

COc1ccc(Nn2c(SCC(=O)Nc3nc(-c4ccc(Cl)cc4)cs3)nc(C)c2C)cc1
GI50 [1]: 4.03 µM
LC50 (lethal concentration, 50% net cell kill) [1]: > 100 µM
TGI [1]: > 100 µM
GI50 [2]: 4.06 µM
LC50 (concentration killing 50% of cells) [2]: > 100 µM
TGI [2]: > 100 µM
GI50 [3]: 1.53 µM
TGI [3]: > 100 µM
CC50 [3]: > 100 µM
GI50 [4]: 4.02 µM
LC50 (concentration killing 50% of starting cells) [4]: > 100 µM
TGI [4]: > 100 µM
GI50 [5]: 4.82 µM
TGI [5]: > 100 µM
CC50 [5]: > 100 µM
GI50 [6]: 2.81 µM
LC50 [6]: > 100 µM
TGI [6]: > 100 µM
GI50 [7]: 2.3 µM
LC50 (concentration killing 50% of cells) [7]: > 100 µM
TGI [7]: 7.52 µM
GI50 [8]: 2.97 µM
LC50 [8]: > 100 µM
TGI [8]: 41.1 µM
GI50 [9]: 2.22 µM
LC50 [9]: > 100 µM
TGI [9]: 56.5 µM
GI50 [10]: 1.41 µM
LC50 (concentration killing 50% of cells) [10]: 7.96 µM
TGI [10]: 3.35 µM
GI50 [11]: 2.16 µM
LC50 (concentration killing 50% of cells) [11]: > 100 µM
TGI [11]: > 100 µM
GI50 [12]: 4.24 µM
LC50 (50% lethal concentration) [12]: > 100 µM
TGI [12]: > 100 µM
GI50 [13]: 4.15 µM
LC50 (concentration killing 50% of cells) [13]: > 100 µM
TGI [13]: > 100 µM
GI50 [14]: 5.67 µM
LC50 (concentration killing 50% of cells) [14]: > 100 µM
TGI [14]: > 100 µM
GI50 [15]: 1.92 µM
TGI [15]: > 100 µM
CC50 [15]: > 100 µM
GI50 [16]: 3.46 µM
LC50 (lethal concentration 50) [16]: > 100 µM
TGI [16]: 18.2 µM
GI50 [17]: 2.9 µM
TGI [17]: > 100 µM
CC50 [17]: > 100 µM
GI50 [18]: 6.46 µM
LC50 [18]: > 100 µM
TGI [18]: 82 µM
GI50 [19]: 3.13 µM
LC50 (50% lethal concentration) [19]: > 100 µM
TGI [19]: 24.2 µM
GI50 [20]: 4.78 µM
LC50 (concentration killing 50% of cells) [20]: > 100 µM
TGI [20]: > 100 µM
GI50 [21]: 1.84 µM
LC50 (concentration killing 50% of cells) [21]: > 100 µM
TGI [21]: 11.1 µM
GI50 [22]: 1.58 µM
TGI [22]: > 100 µM
CC50 [22]: > 100 µM
GI50 [23]: 2.18 µM
LC50 [23]: > 100 µM
TGI [23]: > 100 µM
GI50 [24]: > 100 µM
TGI [24]: > 100 µM
CC50 [24]: > 100 µM
GI50 [25]: 4.61 µM
LC50 [25]: > 100 µM
TGI [25]: 50.4 µM
GI50 [26]: 2.89 µM
LC50 [26]: > 100 µM
TGI [26]: > 100 µM
GI50 [27]: 14.8 µM
LC50 (50% lethal concentration) [27]: > 100 µM
TGI [27]: 80.9 µM
GI50 [28]: 15.7 µM
LC50 (concentration killing 50% of cells) [28]: > 100 µM
TGI [28]: 66.8 µM
GI50 [29]: 2.62 µM
TGI [29]: > 100 µM
CC50 [29]: > 100 µM
GI50 [30]: 6.2 µM
LC50 [30]: > 100 µM
TGI [30]: > 100 µM
GI50 [31]: 8.37 µM
TGI [31]: > 100 µM
CC50 [31]: > 100 µM

Cc1ccc(Nn2c(SCC(=O)Nc3nc(-c4ccccc4)cs3)nc(C)c2C)cc1
GI50 [1]: 4.5 µM
LC50 (lethal concentration, 50% net cell kill) [1]: > 100 µM
TGI [1]: > 100 µM
GI50 [2]: 9.75 µM
LC50 (concentration killing 50% of cells) [2]: > 100 µM
TGI [2]: 64.6 µM
GI50 [3]: 3.42 µM
TGI [3]: > 100 µM
CC50 [3]: > 100 µM
GI50 [4]: 2.13 µM
LC50 (concentration killing 50% of starting cells) [4]: > 100 µM
TGI [4]: > 100 µM
GI50 [5]: 3.79 µM
TGI [5]: > 100 µM
CC50 [5]: > 100 µM
GI50 [6]: 9.1 µM
LC50 [6]: > 100 µM
TGI [6]: > 100 µM
GI50 [7]: 3.2 µM
LC50 (concentration killing 50% of cells) [7]: 63 µM
TGI [7]: 14.2 µM
GI50 [8]: 2.12 µM
LC50 [8]: > 100 µM
TGI [8]: 9.29 µM
GI50 [9]: 17.4 µM
LC50 [9]: > 100 µM
TGI [9]: > 100 µM
GI50 [10]: 2 µM
LC50 (concentration killing 50% of cells) [10]: 23.8 µM
TGI [10]: 5.72 µM
GI50 [11]: 1.86 µM
LC50 (concentration killing 50% of cells) [11]: 99.3 µM
TGI [11]: 6.1 µM
GI50 [12]: 10.6 µM
LC50 (50% lethal concentration) [12]: > 100 µM
TGI [12]: > 100 µM
GI50 [13]: 4.68 µM
LC50 (concentration killing 50% of cells) [13]: > 100 µM
TGI [13]: 35.2 µM
GI50 [14]: 4.59 µM
LC50 (concentration killing 50% of cells) [14]: > 100 µM
TGI [14]: > 100 µM
GI50 [15]: 1.39 µM
TGI [15]: 5.61 µM
CC50 [15]: > 100 µM
GI50 [16]: 4.41 µM
LC50 (lethal concentration 50) [16]: > 100 µM
TGI [16]: > 100 µM
GI50 [17]: 2.48 µM
TGI [17]: 13.6 µM
CC50 [17]: > 100 µM
GI50 [18]: 3.18 µM
LC50 [18]: 94.7 µM
TGI [18]: 14.1 µM
GI50 [19]: 8.24 µM
LC50 (50% lethal concentration) [19]: > 100 µM
TGI [19]: > 100 µM
GI50 [20]: 8.03 µM
LC50 (concentration killing 50% of cells) [20]: > 100 µM
TGI [20]: > 100 µM
GI50 [21]: 4.13 µM
LC50 (concentration killing 50% of cells) [21]: > 100 µM
TGI [21]: 19.1 µM
GI50 [22]: 3.62 µM
TGI [22]: > 100 µM
CC50 [22]: > 100 µM
GI50 [23]: 1.06 µM
LC50 [23]: > 100 µM
TGI [23]: 5.89 µM
GI50 [24]: 10.2 µM
TGI [24]: > 100 µM
CC50 [24]: > 100 µM
GI50 [25]: 4.37 µM
LC50 [25]: > 100 µM
TGI [25]: 28.2 µM
GI50 [26]: 3.04 µM
LC50 [26]: > 100 µM
TGI [26]: 22.2 µM
GI50 [27]: 18.9 µM
LC50 (50% lethal concentration) [27]: > 100 µM
TGI [27]: > 100 µM
GI50 [28]: 7.58 µM
LC50 (concentration killing 50% of cells) [28]: > 100 µM
TGI [28]: 35.3 µM
GI50 [29]: 2.89 µM
TGI [29]: > 100 µM
CC50 [29]: > 100 µM
GI50 [30]: 7.49 µM
LC50 [30]: > 100 µM
TGI [30]: > 100 µM
GI50 [31]: 3.34 µM
TGI [31]: > 100 µM
CC50 [31]: > 100 µM
